The values that follow are results of earlier work, collected in US20220346436A1, “ORALLY DISSOLVING FILMS” (NICOVENTURES TRADING LIMITED, priority 2021, published 2022).

The conditions of series [1]: water / aqueous environment (e.g., saliva).
The conditions of series [2]: when isolated; isomerises to trans-bixin.

Turning to `CC(/C=C/C=C(C)/C=C/C(=O)O)=C\C=C\C=C(C)\C=C\C=C(C)\C=C\C(=O)O` (stereo in doubt) [norbixin, (2E,4E,6E,8E,10E,12E,14E,16E,18E)-4,8,13,17-tetramethylicosa-2,4,6,8,10,12,14,16,18-nonaenedioic acid], the solubility entry in series [1] is “water soluble”.
`C=C(C)[C@@H]1CCC(C)=C[C@H]1c1c(O)cc(CCCCC)cc1O` [CBD, cannabidiol, reference compound]: the logP value result is listed as “about 6.5”. In series [1], the solubility result is “insoluble in an aqueous environment”.
As to `COC(=O)/C=C/C(C)=C\C=C\C(C)=C\C=C\C=C(C)\C=C\C=C(C)\C=C\C(=O)O` [bixin, (2E,4E,6E,8E,10E,12E,14E,16Z,18E)-20-methoxy-4,8,13,17-tetramethyl-20-oxoicosa-2,4,6,8,10,12,14,16,18-nonaenoic acid], the chemical stability entry in series [2] is listed as “chemically unstable when isolated”. The solubility result in series [1] was “insoluble in water”.
